# Earlier results, collected in US8398606B2, “Folded perineal pad” (QuantrRx Biomedical Corporation, priority 2007, dated 2013).
# Parameters: dose or concentration left out as unconfirmed
# Settings: ILP system releasing of estradiol as its 3-acetate ester, in HRT; maintained level
smiles,measurement,value
C[C@]12CC[C@@H]3c4ccc(O)cc4CC[C@H]3[C@@H]1CC[C@@H]2O [estradiol],circulating plasma concentration of the drug,300 pmol/L
